# In ChEMBL document CHEMBL1914396, “Solid-state NMR analysis of interaction sites of curcumin and 42-residue amyloid β-protein fibrils” (Bioorg Med Chem, 2011):
# Calls of active or inactive are those of the source. No cut-off for these calls is given here.
# Assays:
# [1] = Binding affinity to F4 of [13C]-labelled N-terminus amyloid beta (1 to 42) fibrils after 48 hrs by 2D-DARR spectroscopy
# [2] = Binding affinity to A2 of [13C]-labelled N-terminus amyloid beta (1 to 42) fibrils after 48 hrs by 2D-DARR spectroscopy
# [3] = Binding affinity to [13C]-labelled at 17-21 positions of amyloid beta (1 to 42) fibrils after 48 hrs by 2D-DARR spectroscopy
# [4] = Binding affinity to G9 of [13C]-labelled N-terminus amyloid beta (1 to 42) fibrils after 48 hrs by 2D-DARR spectroscopy
# [5] = Binding affinity to [13C]-labelled amyloid beta (1 to 42) fibrils assessed as change in morphology of fibrillation at 50 uM after 1 hr using uranyl acetate dye by Transmission electron microscopy
# [6] = Binding affinity to [13C]-labelled at 17-21 positions of amyloid beta (1 to 42) fibrils by NMR spectroscopy
# [7] = Binding affinity to V12 of [13C]-labelled N-terminus amyloid beta (1 to 42) fibrils after 48 hrs by 2D-DARR spectroscopy
smiles,measurement,setting,value
COc1cc(/C=C/C(=O)CC(=O)/C=C/c2ccc(O)c(OC)c2)ccc1O,Activity,[1],inactive
same,Activity,[2],inactive
same,Activity,[3],Active
same,Activity,[4],inactive
same,Activity,[5],inactive
same,Activity,[6],Active
same,Activity,[7],Active
